Assay results: patent US20260356819A1, “OXOISOINDOLINYL-SUBSTITUTED […] DERIVATIVE AND USE THEREOF” (GLUETACS THERAPEUTICS (SHANGHAI) CO., LTD., priority 2023, published 2026)

Columns and labels:
Format in all cases: cell-based
Details in all cases: compounds at 50 nM and 500 nM
GSPT1 = target: T1, GSPT1 (Homo sapiens, UniProt P15170+Q96SW2); assay: Western blot degradation of GSPT1 in hPBMCs (24 h)
T1 construct: The supernatant was aspirated as the extracted total cell protein; endogenous in cells; host or cells: human peripheral blood mononuclear cells (hPBMCs)
T1 sequence (P15170 whole entry): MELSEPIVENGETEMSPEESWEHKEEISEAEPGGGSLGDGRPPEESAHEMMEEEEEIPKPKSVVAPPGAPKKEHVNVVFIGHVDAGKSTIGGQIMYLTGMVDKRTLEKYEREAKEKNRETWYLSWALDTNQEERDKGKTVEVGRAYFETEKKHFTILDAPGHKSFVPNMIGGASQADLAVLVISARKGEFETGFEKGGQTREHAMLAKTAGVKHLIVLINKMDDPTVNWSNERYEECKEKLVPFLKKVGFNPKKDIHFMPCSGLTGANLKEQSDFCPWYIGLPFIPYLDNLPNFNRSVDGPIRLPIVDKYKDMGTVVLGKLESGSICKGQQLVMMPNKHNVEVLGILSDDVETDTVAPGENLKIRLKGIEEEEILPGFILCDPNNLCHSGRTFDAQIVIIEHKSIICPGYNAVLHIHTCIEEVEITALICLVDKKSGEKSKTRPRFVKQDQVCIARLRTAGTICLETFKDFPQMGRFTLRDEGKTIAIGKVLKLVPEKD
T1 sequence (Q96SW2 whole entry): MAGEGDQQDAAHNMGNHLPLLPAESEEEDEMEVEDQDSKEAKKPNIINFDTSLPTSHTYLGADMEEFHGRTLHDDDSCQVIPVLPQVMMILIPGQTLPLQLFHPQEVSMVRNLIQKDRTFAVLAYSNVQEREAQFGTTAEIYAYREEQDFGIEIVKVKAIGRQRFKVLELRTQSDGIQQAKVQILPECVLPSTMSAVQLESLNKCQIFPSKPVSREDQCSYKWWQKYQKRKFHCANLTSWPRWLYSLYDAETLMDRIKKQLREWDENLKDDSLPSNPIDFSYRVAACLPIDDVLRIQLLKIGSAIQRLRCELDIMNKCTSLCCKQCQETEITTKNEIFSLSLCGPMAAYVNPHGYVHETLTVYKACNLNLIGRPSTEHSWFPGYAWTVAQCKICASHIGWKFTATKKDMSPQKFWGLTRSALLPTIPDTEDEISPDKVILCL
T1 sequence (Q16531 whole entry partner): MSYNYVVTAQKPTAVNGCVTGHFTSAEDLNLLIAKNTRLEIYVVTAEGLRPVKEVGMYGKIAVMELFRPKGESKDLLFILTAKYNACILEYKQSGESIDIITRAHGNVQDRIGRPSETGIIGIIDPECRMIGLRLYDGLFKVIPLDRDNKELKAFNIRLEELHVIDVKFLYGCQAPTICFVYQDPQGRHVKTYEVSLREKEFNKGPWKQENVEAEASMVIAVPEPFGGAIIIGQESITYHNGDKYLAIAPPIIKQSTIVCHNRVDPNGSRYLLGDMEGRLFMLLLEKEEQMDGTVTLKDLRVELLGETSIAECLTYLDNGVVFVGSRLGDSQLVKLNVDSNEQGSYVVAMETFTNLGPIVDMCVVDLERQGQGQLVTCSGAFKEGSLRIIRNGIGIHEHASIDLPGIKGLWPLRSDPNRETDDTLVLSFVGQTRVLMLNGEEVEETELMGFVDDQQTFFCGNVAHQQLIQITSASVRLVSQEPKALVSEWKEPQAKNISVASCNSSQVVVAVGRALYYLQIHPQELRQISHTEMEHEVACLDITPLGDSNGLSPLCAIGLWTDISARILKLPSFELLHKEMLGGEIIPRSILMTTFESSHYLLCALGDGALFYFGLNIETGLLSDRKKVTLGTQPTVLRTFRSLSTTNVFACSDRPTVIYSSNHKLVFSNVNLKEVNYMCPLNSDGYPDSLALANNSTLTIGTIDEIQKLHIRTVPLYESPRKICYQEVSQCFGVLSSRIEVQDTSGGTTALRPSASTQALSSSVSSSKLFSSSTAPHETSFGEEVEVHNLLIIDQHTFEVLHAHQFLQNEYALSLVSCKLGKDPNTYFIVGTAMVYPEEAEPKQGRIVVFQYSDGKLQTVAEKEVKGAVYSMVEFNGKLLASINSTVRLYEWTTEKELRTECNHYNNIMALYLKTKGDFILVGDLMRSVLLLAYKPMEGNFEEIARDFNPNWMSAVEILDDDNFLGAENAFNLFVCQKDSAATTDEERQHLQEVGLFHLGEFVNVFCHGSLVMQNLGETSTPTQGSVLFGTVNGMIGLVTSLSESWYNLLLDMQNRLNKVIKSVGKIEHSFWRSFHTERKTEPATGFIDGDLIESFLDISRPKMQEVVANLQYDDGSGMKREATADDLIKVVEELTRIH
In short: (§1)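 Degradation in primary human PBMCs after 24 h compound exposure at 50 and 500 nM. Western blot band intensities, normalised to an internal control protein, expressed as % protein remaining relative to DMSO.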

WEE1 = target: T2, WEE1 (Homo sapiens, UniProt P30291+Q96SW2); assay: Western blot degradation of WEE1 in hPBMCs (24 h)
T2 construct: The supernatant was aspirated as the extracted total cell protein; endogenous in cells; host or cells: human peripheral blood mononuclear cells (hPBMCs)
T2 sequence (P30291 whole entry): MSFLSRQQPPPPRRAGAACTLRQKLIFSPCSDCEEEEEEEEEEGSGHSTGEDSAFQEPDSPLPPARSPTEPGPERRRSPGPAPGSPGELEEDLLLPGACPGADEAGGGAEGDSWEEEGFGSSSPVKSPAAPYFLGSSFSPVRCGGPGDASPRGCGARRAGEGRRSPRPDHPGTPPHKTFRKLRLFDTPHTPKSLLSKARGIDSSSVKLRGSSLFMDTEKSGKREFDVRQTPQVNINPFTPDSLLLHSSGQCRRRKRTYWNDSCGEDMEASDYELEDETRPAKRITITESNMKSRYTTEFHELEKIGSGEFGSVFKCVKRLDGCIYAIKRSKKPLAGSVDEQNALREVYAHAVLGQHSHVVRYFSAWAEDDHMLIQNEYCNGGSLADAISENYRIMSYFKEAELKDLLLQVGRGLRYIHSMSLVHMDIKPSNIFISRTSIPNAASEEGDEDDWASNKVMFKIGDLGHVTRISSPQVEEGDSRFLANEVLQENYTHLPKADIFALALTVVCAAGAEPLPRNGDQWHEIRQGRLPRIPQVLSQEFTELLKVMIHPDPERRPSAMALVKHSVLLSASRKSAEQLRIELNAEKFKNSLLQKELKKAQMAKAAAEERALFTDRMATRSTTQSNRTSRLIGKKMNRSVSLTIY
T2 sequence (Q96SW2 whole entry): as the sequence (Q96SW2 whole entry) above
T2 sequence (Q16531 whole entry partner): as the sequence (Q16531 whole entry partner) above
In short: as §1

CK1α = target: T3, CK1α (Homo sapiens, UniProt P48729+Q96SW2); assay: Western blot degradation of CK1α in hPBMCs (24 h)
T3 construct: The supernatant was aspirated as the extracted total cell protein; endogenous in cells; host or cells: human peripheral blood mononuclear cells (hPBMCs)
T3 sequence (P48729 whole entry): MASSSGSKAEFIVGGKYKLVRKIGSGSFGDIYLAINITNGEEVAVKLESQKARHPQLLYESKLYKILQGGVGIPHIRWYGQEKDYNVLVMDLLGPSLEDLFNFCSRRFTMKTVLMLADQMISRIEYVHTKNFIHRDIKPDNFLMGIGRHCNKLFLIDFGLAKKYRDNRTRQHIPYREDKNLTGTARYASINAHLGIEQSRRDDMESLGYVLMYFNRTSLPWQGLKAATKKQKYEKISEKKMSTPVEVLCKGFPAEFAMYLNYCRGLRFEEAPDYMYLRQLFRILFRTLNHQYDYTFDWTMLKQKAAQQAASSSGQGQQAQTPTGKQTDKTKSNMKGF
T3 sequence (Q96SW2 whole entry): as the sequence (Q96SW2 whole entry) above
T3 sequence (Q16531 whole entry partner): as the sequence (Q16531 whole entry partner) above
In short: as §1

IKZF2 = target: T4, IKZF2 (Homo sapiens, UniProt Q96SW2+Q9UKS7); assay: Western blot degradation of IKZF2 in hPBMCs (24 h)
T4 construct: The supernatant was aspirated as the extracted total cell protein; endogenous in cells; host or cells: human peripheral blood mononuclear cells (hPBMCs)
T4 sequence (Q9UKS7 whole entry): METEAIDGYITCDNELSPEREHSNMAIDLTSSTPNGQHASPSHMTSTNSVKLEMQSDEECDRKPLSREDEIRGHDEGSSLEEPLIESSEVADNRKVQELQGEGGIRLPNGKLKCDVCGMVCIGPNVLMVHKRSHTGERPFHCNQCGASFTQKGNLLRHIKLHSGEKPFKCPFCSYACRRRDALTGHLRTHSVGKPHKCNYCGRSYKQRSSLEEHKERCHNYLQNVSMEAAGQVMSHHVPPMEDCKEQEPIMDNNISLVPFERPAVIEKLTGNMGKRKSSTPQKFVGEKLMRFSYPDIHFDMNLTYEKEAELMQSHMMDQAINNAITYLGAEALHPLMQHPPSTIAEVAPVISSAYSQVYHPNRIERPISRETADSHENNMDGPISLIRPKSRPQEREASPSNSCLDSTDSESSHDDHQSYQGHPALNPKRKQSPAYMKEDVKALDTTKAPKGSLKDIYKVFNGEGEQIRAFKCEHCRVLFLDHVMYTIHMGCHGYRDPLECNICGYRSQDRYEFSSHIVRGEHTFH
T4 sequence (Q96SW2 whole entry): as the sequence (Q96SW2 whole entry) above
T4 sequence (Q16531 whole entry partner): as the sequence (Q16531 whole entry partner) above
In short: as §1

IKZF1 = target: T5, IKZF1 (Homo sapiens, UniProt Q13422+Q96SW2); assay: Western blot degradation of IKZF1 in hPBMCs (24 h)
T5 construct: The supernatant was aspirated as the extracted total cell protein; endogenous in cells; host or cells: human peripheral blood mononuclear cells (hPBMCs)
T5 sequence (Q13422 whole entry): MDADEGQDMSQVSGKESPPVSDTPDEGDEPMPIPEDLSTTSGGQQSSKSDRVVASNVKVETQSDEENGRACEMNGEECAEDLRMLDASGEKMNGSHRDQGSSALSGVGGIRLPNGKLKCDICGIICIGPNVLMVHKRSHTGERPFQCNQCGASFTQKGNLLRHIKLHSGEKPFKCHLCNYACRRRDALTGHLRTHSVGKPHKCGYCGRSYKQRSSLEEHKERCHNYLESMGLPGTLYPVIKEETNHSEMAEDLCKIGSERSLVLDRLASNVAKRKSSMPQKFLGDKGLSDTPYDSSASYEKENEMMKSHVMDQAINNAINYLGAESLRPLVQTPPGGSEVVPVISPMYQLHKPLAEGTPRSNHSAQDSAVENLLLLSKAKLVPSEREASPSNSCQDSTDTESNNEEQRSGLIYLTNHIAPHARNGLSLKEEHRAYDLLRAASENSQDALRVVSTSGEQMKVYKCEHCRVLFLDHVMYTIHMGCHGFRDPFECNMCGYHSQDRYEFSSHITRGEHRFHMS
T5 sequence (Q96SW2 whole entry): as the sequence (Q96SW2 whole entry) above
T5 sequence (Q16531 whole entry partner): as the sequence (Q16531 whole entry partner) above
In short: as §1

IKZF3 = target: T6, IKZF3 (Homo sapiens, UniProt Q96SW2+Q9UKT9); assay: Western blot degradation of IKZF3 in hPBMCs (24 h)
T6 construct: The supernatant was aspirated as the extracted total cell protein; endogenous in cells; host or cells: human peripheral blood mononuclear cells (hPBMCs)
In short: as §1

Structure (SMILES)	GSPT1 substrate protein remaining % (GSPT1)	WEE1 substrate protein remaining % (WEE1)	CK1α substrate protein remaining % (CK1α)	IKZF2 substrate protein remaining % (IKZF2)	IKZF1 substrate protein remaining % (IKZF1)	IKZF3 substrate protein remaining % (IKZF3)
Cc1nc(C2=CCN(Cc3ccc4c(c3)C(=O)N(N3CCC(=O)NC3=O)C4=O)CC2)c2c3c(sc2n1)CCC3 [GT-08435, 2-(2,4-dioxotetrahydropyrimidin-1(2H)-yl)-5-((4-(2-methyl-6,7-dihydro-5H-cyclopenta[4,5]thieno[2,3-d]pyrimidin-4-yl)-3,6-dihydropyridin-1(2H)-yl)methyl)isoindoline-1,3-dione]	A (0% ≤ substrate protein remaining % ≤80%)	A (0% ≤ substrate protein remaining % ≤80%)	B (80%< substrate protein remaining % ≤100%)	B (80%< substrate protein remaining % ≤100%)	A (0% ≤ substrate protein remaining % ≤80%)	A (0% ≤ substrate protein remaining % ≤80%)
O=C1CCN(N2C(=O)c3ccc(CN4CC=C(c5cccc6c(F)cccc56)CC4)cc3C2=O)C(=O)N1 [GT-07687, 2-(2,4-dioxotetrahydropyrimidin-1(2H)-yl)-5-((4-(5-fluoronaphthalen-1-yl)-3,6-dihydropyridin-1(2H)-yl)methyl)isoindoline-1,3-dione]	A (0% ≤ substrate protein remaining % ≤80%)	B (80%< substrate protein remaining % ≤100%)	B (80%< substrate protein remaining % ≤100%)	B (80%< substrate protein remaining % ≤100%)	B (80%< substrate protein remaining % ≤100%)	B (80%< substrate protein remaining % ≤100%)
O=C1CCN(N2Cc3cc(CN4CC5CCC4CN5c4cccc(Cl)c4Cl)ccc3C2=O)C(=O)N1 (stereo not drawn) [GT-07428, 1-(5-((5-(2,3-dichlorophenyl)-2,5-diazabicyclo[2.2.2]octan-2-yl)methyl)-1-oxoisoindolin-2-yl)dihydropyrimidine-2,4(1H,3H)-dione]	A (0% ≤ substrate protein remaining % ≤80%)	B (80%< substrate protein remaining % ≤100%)	A (0% ≤ substrate protein remaining % ≤80%)	B (80%< substrate protein remaining % ≤100%)	A (0% ≤ substrate protein remaining % ≤80%)	B (80%< substrate protein remaining % ≤100%)
Cc1ccsc1C1=CCN(Cc2ccc3c(c2)C(=O)N(N2CCC(=O)NC2=O)C3=O)CC1 [GT-06434, 2-(2,4-dioxotetrahydropyrimidin-1(2H)-yl)-5-((4-(3-methylthiophen-2-yl)-3,6-dihydropyridin-1(2H)-yl)methyl)isoindoline-1,3-dione]	A (0% ≤ substrate protein remaining % ≤80%)	A (0% ≤ substrate protein remaining % ≤80%)	B (80%< substrate protein remaining % ≤100%)	A (0% ≤ substrate protein remaining % ≤80%)	B (80%< substrate protein remaining % ≤100%)	A (0% ≤ substrate protein remaining % ≤80%)
O=C1CCN(N2C(=O)c3ccc(CN4CCN(c5nsc6cc(F)ccc56)CC4)cc3C2=O)C(=O)N1 [GT-07526, 2-(2,4-dioxotetrahydropyrimidin-1(2H)-yl)-5-((4-(6-fluorobenzo[d]isothiazol-3-yl)piperazin-1-yl)methyl)isoindoline-1,3-dione]	A (0% ≤ substrate protein remaining % ≤80%)	B (80%< substrate protein remaining % ≤100%)	A (0% ≤ substrate protein remaining % ≤80%)	B (80%< substrate protein remaining % ≤100%)	B (80%< substrate protein remaining % ≤100%)	B (80%< substrate protein remaining % ≤100%)
O=C1CCN(N2Cc3cc(CN4CC=C(c5ccnc(F)c5F)CC4)ccc3C2=O)C(=O)N1 [GT-06397, 1-(5-((2′,3′-difluoro-3,6-dihydro-[4,4′-bipyridin]-1(2H)-yl)methyl)-1-oxoisoindolin-2-yl)dihydropyrimidine-2,4(1H,3H)-dione]	A (0% ≤ substrate protein remaining % ≤80%)	A (0% ≤ substrate protein remaining % ≤80%)	B (80%< substrate protein remaining % ≤100%)	A (0% ≤ substrate protein remaining % ≤80%)	B (80%< substrate protein remaining % ≤100%)	B (80%< substrate protein remaining % ≤100%)
O=C1CCN(N2C(=O)c3ccc(CN4CCN(c5ccncc5)CC4)cc3C2=O)C(=O)N1 [GT-07073, 2-(2,4-dioxotetrahydropyrimidin-1(2H)-yl)-5-((4-(pyridin-4-yl)piperazin-1-yl)methyl)isoindoline-1,3-dione]	B (80%< substrate protein remaining % ≤100%)	A (0% ≤ substrate protein remaining % ≤80%)	B (80%< substrate protein remaining % ≤100%)	B (80%< substrate protein remaining % ≤100%)	B (80%< substrate protein remaining % ≤100%)	B (80%< substrate protein remaining % ≤100%)
O=C1CCN(N2C(=O)c3ccc(CN4CCN(c5ncnc6scc(-c7ccccc7)c56)CC4)cc3C2=O)C(=O)N1 [GT-08098, 2-(2,4-dioxotetrahydropyrimidin-1(2H)-yl)-5-((4-(5-phenylthieno[2,3-d]pyrimidin-4-yl)piperazin-1-yl)methyl)isoindoline-1,3-dione]	A (0% ≤ substrate protein remaining % ≤80%)	B (80%< substrate protein remaining % ≤100%)	B (80%< substrate protein remaining % ≤100%)	B (80%< substrate protein remaining % ≤100%)	B (80%< substrate protein remaining % ≤100%)	B (80%< substrate protein remaining % ≤100%)
O=C1CCN(N2C(=O)c3ccc(CN4CCC(c5ccoc5)CC4)cc3C2=O)C(=O)N1 [GT-07422, 2-(2,4-dioxotetrahydropyrimidin-1(2H)-yl)-5-((4-(furan-3-yl)piperidin-1-yl)methyl)isoindoline-1,3-dione]	A (0% ≤ substrate protein remaining % ≤80%)	B (80%< substrate protein remaining % ≤100%)	A (0% ≤ substrate protein remaining % ≤80%)	B (80%< substrate protein remaining % ≤100%)	B (80%< substrate protein remaining % ≤100%)	B (80%< substrate protein remaining % ≤100%)
Cc1csc2ncnc(N3CCN(Cc4ccc5c(c4)C(=O)N(N4CCC(=O)NC4=O)C5=O)CC3)c12 [GT-08091, 2-(2,4-dioxotetrahydropyrimidin-1(2H)-yl)-5-((4-(5-methylthieno[2,3-d]pyrimidin-4-yl)piperazin-1-yl)methyl)isoindoline-1,3-dione]	A (0% ≤ substrate protein remaining % ≤80%)	A (0% ≤ substrate protein remaining % ≤80%)	A (0% ≤ substrate protein remaining % ≤80%)	B (80%< substrate protein remaining % ≤100%)	B (80%< substrate protein remaining % ≤100%)	B (80%< substrate protein remaining % ≤100%)
Cc1nc(N2CCN(Cc3ccc4c(c3)CN(N3CCC(=O)NC3=O)C4=O)CC2)c2ccsc2n1 [GT-08067, 1-(5-((4-(2-methylthieno[2,3-d]pyrimidin-4-yl)piperazin-1-yl)methyl)-1-oxoisoindolin-2-yl)dihydropyrimidine-2,4(1H,3H)-dione]	B (80%< substrate protein remaining % ≤100%)	B (80%< substrate protein remaining % ≤100%)	B (80%< substrate protein remaining % ≤100%)	A (0% ≤ substrate protein remaining % ≤80%)	B (80%< substrate protein remaining % ≤100%)	B (80%< substrate protein remaining % ≤100%)
O=C1CCN(N2C(=O)c3ccc(CN4CCN(c5ccc(Cl)cc5)CC4)cc3C2=O)C(=O)N1 [GT-06783, 5-((4-(4-chlorophenyl)piperazin-1-yl)methyl)-2-(2,4-dioxotetrahydropyrimidin-1(2H)-yl)isoindoline-1,3-dione]	B (80%< substrate protein remaining % ≤100%)	B (80%< substrate protein remaining % ≤100%)	B (80%< substrate protein remaining % ≤100%)	B (80%< substrate protein remaining % ≤100%)	B (80%< substrate protein remaining % ≤100%)	A (0% ≤ substrate protein remaining % ≤80%)
